Patent US4396550A, “Dibenz [b,e] oxepin derivatives” (Kyowa Hakko Kogyo Co., Ltd., priority 1980, dated 1983)

Key:
male dd-strain rats = experiment: Acute toxicity test (minimum lethal dose); type: in vivo; settings: mortality for 7 days
Description: Groups of male dd-strain rats (each group consisting of five rats) weighing 20±1 g were used. The compounds of the present invention were administered orally (po: 0.3 mg/g) or intraperitoneally (ip: 0.1 mg/g). The MLD (minimum lethal dose) was calculated from the mortality for 7 days after the administration to obtain the results given in Table 1.

[1] = tested on: blood platelets (platelet-rich plasma); experiment: Test for the inhibition of platelet aggregation (collagen-induced, platelet-rich plasma); type: cell-based, male white rabbits; settings: Oryctolagus cuniculus, Platelet, 0.05 h; depressing ratio of 50% of collagen-induced aggregation; compound 3 minutes before; read-out: Antiplatelet aggregation activity: MED
Description: In this test, 9 vols. of blood are sampled from the caroted artery of male white rabbits weighing 2 to 2.5 kg and placed in a silicon-coated flask containing 1 vol. of 3.8% sodium citrate. The thus obtained blood is centrifuged at 1,000 rpm for 15 minutes to obtain platelet-rich plasma. The aggregation of the blood platelets is observed using an aggregometer, when collagen is added to the platelet-rich plasma to the extent of the final concentration that 50% of platelet aggregation is caused in the presence of 100 γ/ml of aspirin. On the other hand, 3 minutes after administration of the test compounds to the platelet-rich plasma, the same procedure as mentioned above is carried out to observe the aggregation of blood platelet. The test compounds showing a depressing ratio of 50%, compared with the inhibition of aggregation by collagen alone, are concluded to have antiplatelet aggregation activity.

[2] = tested on: isolated ileum of guinea-pig; experiment: Test for antihistaminergic effects on the isolated ileum of guinea-pig (histamine contraction, in vitro); parameters: species or system guinea-pig (male Hartly-strain); settings: Cavia porcellus, 0.05 h; depressing ratio of 80% or more of histamine contraction; read-out: Antihistaminergic activity: MED
Description: (§1) Male Hartly-strain guinea-pigs weighing about 250 g are killed and the abdomen is opened. The part (2-3 cm in length) of the ileum 10 cm away from the caecum to the pylorus is cut off as a preparation. The preparation is suspended with serre-fine in a Magnus bath containing 10 ml of Tyrode's solution at 32±1° C. under an air bubble. The contraction of the ileum is recorded on Kymograph through hebel when 0.1 ml of acetylcholine at a concentration of 10^-3 g/ml is added to the Tyrode's solution.
(§2) On the other hand, 3 minutes after administration of the test compounds, the same procedure as mentioned above is carried out to record the contraction.
In this test, 0.1 ml of histamine at a concentration of 5×10^-3 g/l is used.

[3] = tested on: isolated ileum of guinea-pig; experiment: Test for anticholinergic effects on the isolated ileum of guinea-pig (acetylcholine contraction, in vitro); parameters: species or system guinea-pig (male Hartly-strain); settings: Cavia porcellus, 0.05 h; depressing ratio of 80% or more of acetylcholine contraction; compound 3 minutes before; read-out: Anticholinergic activity: MED (minimum effective dose)
Description: as §1, §2

CCN(CC)CCNC1c2ccccc2COc2ccc(C3CCCCC3)cc21 (centres unmarked) [Compound 48, 2-cyclohexyl-11-{2-(diethylamino)ethyl}amino-6,11-dihydrodibenz[b,e]oxepin]
Acute toxicity: MLD (minimum lethal dose) (male dd-strain rats; ip): 100 mg/kg | Acute toxicity: MLD (minimum lethal dose) (male dd-strain rats; po): > 300 mg/kg | minimal effective concentration [1]: 100 µg/mL | minimal effective concentration [2]: 3 µg/mL | minimal effective concentration [3]: 3 µg/mL

CCN(CC)CCNC1c2ccccc2COc2c(C)cccc21 (centres unmarked) [Compound 12, 4-methyl-11-{2-(diethylamino)ethyl}amino-6,11-dihydrodibenz[b,e]oxepin]
Acute toxicity: MLD (minimum lethal dose) (male dd-strain rats; ip): 100 mg/kg | Acute toxicity: MLD (minimum lethal dose) (male dd-strain rats; po): > 300 mg/kg | minimal effective concentration [1]: 10 µg/mL

CCc1ccc2c(c1)C(NCCN1CCNCC1)c1ccccc1CO2 (centres unmarked) [Compound 26, 2-ethyl-11-{2-(1-piperazinyl)ethyl}amino-6,11-dihydrodibenz[b,e]oxepin]
Acute toxicity: MLD (minimum lethal dose) (male dd-strain rats; ip): > 100 mg/kg | Acute toxicity: MLD (minimum lethal dose) (male dd-strain rats; po): > 300 mg/kg | minimal effective concentration [1]: 5 µg/mL | minimal effective concentration [2]: 3 µg/mL | minimal effective concentration [3]: 3 µg/mL

c1ccc2c(c1)COc1ccc(C3CCCCC3)cc1C2NC1CN2CCC1CC2 (centres unmarked) [Compound 54, 2-cyclohexyl-11-(3-quinuclidinyl)amino-6,11-dihydrodibenz[b,e]oxepin]
Acute toxicity: MLD (minimum lethal dose) (male dd-strain rats; ip): 100 mg/kg | Acute toxicity: MLD (minimum lethal dose) (male dd-strain rats; po): > 300 mg/kg | minimal effective concentration [2]: 1 µg/mL | minimal effective concentration [3]: 10 µg/mL

Fc1ccc2c(c1)C(NCCN(Cc1ccccc1)Cc1ccccc1)c1ccccc1CO2 (centres unmarked) [Compound 34, 2-fluoro-11-{2-(dibenzylamino)ethyl}amino-6,11-dihydrodibenz[b,e]oxepin]
Acute toxicity: MLD (minimum lethal dose) (male dd-strain rats; ip): > 100 mg/kg | Acute toxicity: MLD (minimum lethal dose) (male dd-strain rats; po): 300 mg/kg | minimal effective concentration [2]: 10 µg/mL

CC(CCc1ccccc1)NC1c2ccccc2COc2ccc(F)cc21 (centres unmarked) [Compound 32, 2-fluoro-11-{(1-methyl-3-phenyl)propyl}amino-6,11-dihydrodibenz[b,e]oxepin]
Acute toxicity: MLD (minimum lethal dose) (male dd-strain rats; ip): > 100 mg/kg | Acute toxicity: MLD (minimum lethal dose) (male dd-strain rats; po): > 300 mg/kg | minimal effective concentration [3]: 3 µg/mL

NCCN1CCN(C2c3ccccc3COc3ccc(F)cc32)CC1 (centres unmarked) [Compound 46, 2-fluoro-11-{4-(2-aminoethyl)-1-piperazinyl}-6,11-dihydrodibenz[b,e]oxepin]
Acute toxicity: MLD (minimum lethal dose) (male dd-strain rats; ip): > 100 mg/kg | Acute toxicity: MLD (minimum lethal dose) (male dd-strain rats; po): > 300 mg/kg | minimal effective concentration [1]: 50 µg/mL | minimal effective concentration [2]: 1 µg/mL

Cc1ccc2c(c1)C(Nc1ccc3[nH]ccc3c1)c1ccccc1CO2 (centres unmarked) [Compound 62, 2-methyl-11-(5-indolyl)amino-6,11-dihydrodibenz[b,e]oxepin]
Acute toxicity: MLD (minimum lethal dose) (male dd-strain rats; ip): > 100 mg/kg | Acute toxicity: MLD (minimum lethal dose) (male dd-strain rats; po): > 300 mg/kg | minimal effective concentration [1]: 50 µg/mL

Fc1ccc2c(c1)C(NCC1COc3ccccc3O1)c1ccccc1CO2 (centres unmarked) [Compound 30, 2-fluoro-11-{(1,4-benzodioxane-2-)methyl}amino-6,11-dihydrodibenz[b,e]oxepin]
Acute toxicity: MLD (minimum lethal dose) (male dd-strain rats; ip): > 100 mg/kg | Acute toxicity: MLD (minimum lethal dose) (male dd-strain rats; po): > 300 mg/kg | minimal effective concentration [2]: 10 µg/mL | minimal effective concentration [3]: 10 µg/mL

CCN(CCN(C)C)C1c2ccccc2COc2ccc(C)cc21 (centres unmarked) [Compound 64, 2-methyl-11-[N-{2-(dimethylamino)ethyl}-N-ethyl]amino-6,11-dihydrodibenz[b,e]oxepin]
Acute toxicity: MLD (minimum lethal dose) (male dd-strain rats; ip): > 100 mg/kg | Acute toxicity: MLD (minimum lethal dose) (male dd-strain rats; po): > 300 mg/kg | minimal effective concentration [2]: 10 µg/mL | minimal effective concentration [3]: 10 µg/mL

Cc1cccc2c1OCc1ccccc1C2N1CCN(CCO)CC1 (centres unmarked) [Compound 41, 4-methyl-11-{4-(2-hydroxyethyl)-1-piperazinyl}-6,11-dihydrodibenz[b,e]oxepin]
Acute toxicity: MLD (minimum lethal dose) (male dd-strain rats; ip): > 100 mg/kg | Acute toxicity: MLD (minimum lethal dose) (male dd-strain rats; po): > 300 mg/kg | minimal effective concentration [1]: 100 µg/mL

Fc1ccc(C(NC2c3ccccc3COc3ccc(F)cc32)c2ccc(F)cc2)cc1 (centres unmarked) [Compound 31, 2-fluoro-11-{bis-(4-fluorophenyl)methyl}amino-6,11-dihydrodibenz[b,e]oxepin]
Acute toxicity: MLD (minimum lethal dose) (male dd-strain rats; ip): > 100 mg/kg | Acute toxicity: MLD (minimum lethal dose) (male dd-strain rats; po): > 300 mg/kg | minimal effective concentration [1]: 100 µg/mL

Cc1ccc2c(c1)C(N1CCN(CCN)CC1)c1ccccc1CO2 (centres unmarked) [Compound 44, 2-methyl-11-{4-(2-aminoethyl)-1-piperazinyl}-6,11-dihydrodibenz[b,e]oxepin]
Acute toxicity: MLD (minimum lethal dose) (male dd-strain rats; ip): 100 mg/kg | Acute toxicity: MLD (minimum lethal dose) (male dd-strain rats; po): > 300 mg/kg | minimal effective concentration [2]: 10 µg/mL | minimal effective concentration [3]: 10 µg/mL

Fc1ccc2c(c1)C(NCCOC(c1ccccc1)c1ccccc1)c1ccccc1CO2 (centres unmarked) [Compound 33, 2-fluoro-11-{2-(diphenylmethyloxy)ethyl}amino-6,11-dihydrodibenz[b,e]oxepin]
Acute toxicity: MLD (minimum lethal dose) (male dd-strain rats; ip): > 100 mg/kg | Acute toxicity: MLD (minimum lethal dose) (male dd-strain rats; po): > 300 mg/kg | minimal effective concentration [1]: 100 µg/mL

Fc1ccc(C(c2ccc(F)cc2)N2CCN(C3c4ccccc4COc4ccc(F)cc43)CC2)cc1 (centres unmarked) [Compound 43, 2-fluoro-11-[4-{bis-(4-fluorophenyl)}methyl-1-piperazinyl]-6,11-dihydrodibenz[b,e]oxepin]
Acute toxicity: MLD (minimum lethal dose) (male dd-strain rats; ip): > 100 mg/kg | Acute toxicity: MLD (minimum lethal dose) (male dd-strain rats; po): > 300 mg/kg | minimal effective concentration [1]: 100 µg/mL

COc1ccc(CCNC2c3ccccc3COc3ccc(F)cc32)cc1OC (centres unmarked) [Compound 60, 2-fluoro-11-{2-(3,4-dimethoxyphenyl)ethyl}amino-6,11-dihydrodibenz[b,e]oxepin]
Acute toxicity: MLD (minimum lethal dose) (male dd-strain rats; ip): > 100 mg/kg | Acute toxicity: MLD (minimum lethal dose) (male dd-strain rats; po): > 300 mg/kg | minimal effective concentration [2]: 10 µg/mL

CCN(CC)CCCNC1c2ccccc2COc2ccc(OC)cc21 (centres unmarked) [Compound 7, 2-methoxy-11-{3-(diethylamino)propyl}amino-6,11-dihydrodibenz[b,e]oxepin]
Acute toxicity: MLD (minimum lethal dose) (male dd-strain rats; ip): 100 mg/kg | Acute toxicity: MLD (minimum lethal dose) (male dd-strain rats; po): > 300 mg/kg | minimal effective concentration [2]: 0.3 µg/mL | minimal effective concentration [3]: 0.3 µg/mL

Cc1ccc2c(c1)C(NN1CCN(C)CC1)c1ccccc1CO2 (centres unmarked) [Compound 29, 2-methyl-11-(4-methyl-1-piperazinyl)amino-6,11-dihydrodibenz[b,e]oxepin]
Acute toxicity: MLD (minimum lethal dose) (male dd-strain rats; ip): > 100 mg/kg | Acute toxicity: MLD (minimum lethal dose) (male dd-strain rats; po): > 300 mg/kg | minimal effective concentration [1]: 50 µg/mL | minimal effective concentration [2]: 10 µg/mL

OCCN1CCN(C2c3ccccc3COc3c(-c4ccccc4)cccc32)CC1 (centres unmarked) [Compound 42, 4-phenyl-11-{4-(2-hydroxyethyl)-1-piperazinyl}-6,11-dihydrodibenz[b,e]oxepin]
Acute toxicity: MLD (minimum lethal dose) (male dd-strain rats; ip): > 100 mg/kg | Acute toxicity: MLD (minimum lethal dose) (male dd-strain rats; po): > 300 mg/kg | minimal effective concentration [1]: 100 µg/mL

CCc1ccc2c(c1)C(Nc1cccc3ncccc13)c1ccccc1CO2 (centres unmarked) [Compound 61, 2-ethyl-11-(5-quinolyl)amino-6,11-dihydrodibenz[b,e]oxepin]
Acute toxicity: MLD (minimum lethal dose) (male dd-strain rats; ip): > 100 mg/kg | Acute toxicity: MLD (minimum lethal dose) (male dd-strain rats; po): > 300 mg/kg | minimal effective concentration [2]: 10 µg/mL

Cc1ccc2c(c1)C(N1CCC3(CC1)OCCO3)c1ccccc1CO2 (centres unmarked) [Compound 65, 2-methyl-11-(1',3'-dioxoran-2-'spiro-4-piperidino)-6,11-dihydrodibenz[b,e]oxepin]
Acute toxicity: MLD (minimum lethal dose) (male dd-strain rats; ip): > 100 mg/kg | Acute toxicity: MLD (minimum lethal dose) (male dd-strain rats; po): > 300 mg/kg | minimal effective concentration [2]: 10 µg/mL
